Results from patent publication US20050197338A1, “Substituted pyrazole urea compounds for the treatment of inflammation” (priority 2003, published 2005).

Target: T1, human IKK-2 (rhIKK-2 homodimer) (Homo sapiens, UniProt O14920)
T1 construct: FLAG (DYKDDDDKD) (C); made in house; host or cells: insect cells (baculovirus, pFastBac)
T1 sequence (O14920 1-756): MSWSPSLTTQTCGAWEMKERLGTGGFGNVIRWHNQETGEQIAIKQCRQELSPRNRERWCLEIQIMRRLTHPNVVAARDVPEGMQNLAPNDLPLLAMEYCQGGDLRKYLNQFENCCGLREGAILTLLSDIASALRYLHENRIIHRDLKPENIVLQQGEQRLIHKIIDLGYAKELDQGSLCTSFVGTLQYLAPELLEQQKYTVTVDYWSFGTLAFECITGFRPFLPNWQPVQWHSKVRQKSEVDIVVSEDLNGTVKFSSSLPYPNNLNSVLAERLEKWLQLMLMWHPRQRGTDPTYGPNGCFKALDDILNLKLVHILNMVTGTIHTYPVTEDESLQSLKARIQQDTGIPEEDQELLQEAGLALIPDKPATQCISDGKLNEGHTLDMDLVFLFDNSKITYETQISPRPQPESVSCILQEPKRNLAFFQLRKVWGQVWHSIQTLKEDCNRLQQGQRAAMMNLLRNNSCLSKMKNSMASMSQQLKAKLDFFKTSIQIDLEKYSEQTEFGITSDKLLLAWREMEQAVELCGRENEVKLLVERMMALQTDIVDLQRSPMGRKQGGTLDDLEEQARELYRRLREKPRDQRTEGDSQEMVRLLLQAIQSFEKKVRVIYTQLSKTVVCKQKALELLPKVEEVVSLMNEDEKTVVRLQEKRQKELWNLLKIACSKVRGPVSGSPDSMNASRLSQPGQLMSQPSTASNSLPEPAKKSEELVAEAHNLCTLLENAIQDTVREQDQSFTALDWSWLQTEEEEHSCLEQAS
Experiment: IKK-2 Resin Enzyme Assay (Human IKK-2 Enzyme Assay)
Assay type: biochemical
Conditions: human IKK-2, resin enzyme assay; read-out: IC50 (μM) hIKK-2
Description: Materials: SAM^2™96 Biotin capture plates were from Promega. Anti-FLAG affinity resin, FLAG-peptide, NP-40 (Nonidet P-40), BSA, ATP, ADP, AMP, LPS (E. coli serotype 0111:B4), and dithiothreitol were obtained from Sigma Chemicals. Antibodies specific for NEMO (IKK-γ) (FL-419), IKK-1 (H-744), IKK-2(H-470) and IκBa(C-21) were purchased from Santa Cruz Biotechnology. Ni-NTA resin was purchased from Qiagen. Peptides were purchased from American Peptide Company. Protease inhibitor cocktail tablets were from Boehringer Mannheim. Sephacryl S-300 column was from Pharmacia LKB Biotechnology. Centriprep-10 concentrators with a molecular weight cutoff of 10 kDa and membranes with molecular weight cut-off of 30 kDa were obtained from Amicon. [γ-^33P] ATP (2500 Ci/mmol) and [γ-^32P] ATP (6000 Ci/mmol) were purchased from Amersham. The other reagents used were of the highest grade commercially available.
Cloning and Expression: cDNAs of human IKK-1 and IKK-2 were amplified by reverse transcriptase-polymerase chain reaction from human placental RNA (Clonetech). hlKK-1 was subcloned into pFastBac HTa (Life Technologies) and expressed as N-terminal His6-tagged fusion protein. The hlKK-2 cDNA was amplified using a reverse oligonucleotide primer which incorporated the peptide sequence for a FLAG-epitope tag at the C-terminus of the IKK-2 coding region (DYKDDDDKD). The hlKK-2:FLAG cDNA was subcloned into the baculovirus vector pFastBac. The rhIKK-2 ([…]) mutant was constructed in the same vector used for wild type rhIKK-2 using a QuikChange™ mutagenesis kit (Stratagene). Viral stocks of each construct were used to infect insect cells grown in 40 L suspension culture. […] Cell lysates were stored at −80° C. until purification of the recombinant proteins was undertaken as described below.
Enzyme Isolation: All purification procedures were carried out at 4° C. unless otherwise noted. Buffers used are: buffer A: 20 mM Tris-HCl, pH 7.6, containing 50 mM NaCl, 20 mM NaF, 20 mM β-Glycerophosphate, 500 μM sodium orthovanadate, 2.5 mM metabisulfite, 5 mM benzamidine, 1 mM EDTA, 0.5 mM EGTA, 10% glycerol, 1 mM DTT, 1× Complete™ protease inhibitors; buffer B: same as buffer A, except 150 mM NaCl, and buffer C: same as buffer A, except 500 mM NaCl.
Isolation of rhIKK-2 homodimer: A 10-liter culture of baculovirus-expressing IKK-2 tagged with FLAG peptide was centrifuged and the cell pellet (MOI=0.1 and 1=72 h) was re-suspended in buffer A. These cells were microfluidized, and centrifuged at 100,000×g for 45 min. Supernatant was passed over a G-25 column equilibrated with Buffer A. Protein peak was collected and incubated with anti-FLAG affinity resin on a rotator overnight in buffer B. The resin was washed in batch with 10-15 bed volumes of buffer C. Washed resin was poured into a column and rhIKK-2 homodimer was eluted using 5 bed volumes of buffer B containing FLAG peptide. 5 mM DTT, 0.1% NP-40 and BSA (concentrated to 0.1% in final amount) was added to the eluted enzyme before concentrating in using an Amicon membrane with a molecular weight cut-off of 30 kDa. Enzyme was aliquoted and stored at −80° C.
IKK-2 Resin Enzyme Assay: IKK-2 kinase activity was measured using a biotinylated IκBα peptide (Gly-Leu-Lys-Lys-Glu-Arg-Leu-Leu-Asp-Asp-Arg-His-Asp-Ser32-Gly-Leu-Asp-Ser36-Met-Lys-Asp-Glu-Glu) (American Peptide Co.). 20 μL of the standard reaction mixture contained 5 μM biotinylated IκBα peptide, 0.1 μCi/reaction [γ-^33P] ATP (Amersham) (about 1×10^5 cpm), 1 μM ATP (Sigma), 1 mM DTT (Sigma), 2 mM MgCl2 (Sigma), 2 mM MnCl2 (Sigma), 10 mM NaF (Sigma), 25 mM Hepes (Sigma) buffer, pH 7.6 and 20 μL enzyme solution and 10 μL inhibitor in a final volume of 50 μL. After incubation at 25° C. for 30 min, 150 μL resin (Dowex anion-exchange resin AG1X8 200-400 mesh) in 900 mM formate, pH 3.0 was added to each well to stop the reaction. Resin was allowed to settle for 1 h and 50 μL of supernatant was removed to a Micolite-2 flat bottom plate (Dynex). […]

Compound | IC50
NC(=O)Nc1cn(-c2ccc(-c3cccc(O)c3)cc2)nc1C(N)=O [Example 22, 4-[(aminocarbonyl)amino]-1-(3′-hydroxy-1,1′-biphenyl-4-yl)-1H-pyrazole-3-carboxamide] | 1.2 µM
NCc1ccc(-c2cccc(-n3cc(NC(N)=O)c(C(N)=O)n3)c2)cc1 [Example 52, 4-[(aminocarbonyl)amino]-1-[4′-(aminomethyl)-1,1′-biphenyl-3-yl]-1H-pyrazole-3-carboxamide] | 4.86 µM
CC(C)CCSc1ccc(-n2cc(NC(N)=O)c(C(N)=O)n2)cc1 [Example 291, 1-(3-carbamoyl-1-(4-(isopentylthio)phenyl)-1H-pyrazol-4-yl)urea] | 6.23 µM
NC(=O)Nc1cn(-c2cccc([S+]([O-])c3ccccc3F)c2)nc1C(N)=O (stereo not shown) [Example 202, 1-(1-(3-(2-fluorophenylsulfinyl)phenyl)-3-carbamoyl-1H-pyrazol-4-yl)urea] | 5.97 µM
NC(=O)Nc1cn(-c2ccc(-c3ccccc3CCC(=O)O)cc2)nc1C(N)=O [Example 379, 3-(4′-{3-(aminocarbonyl)-4-[(aminocarbonyl)amino]-1H-pyrazol-1-yl}-1,1′-biphenyl-2-yl)propanoic acid] | 1.95 µM
CSc1ccccc1-c1cccc(-n2cc(NC(N)=O)c(C(N)=O)n2)c1 [Example 356, 4-[(aminocarbonyl)amino]-1-[2′-(methylthio)-1,1′-biphenyl-3-yl]-1H-pyrazole-3-carboxamide] | > 20 µM
NC(=O)Nc1cn(-c2cccc(-c3ccccc3)c2)nc1C(N)=O [Example 339, 4-[(aminocarbonyl)amino]-1-(1,1′-biphenyl-3-yl)-1H-pyrazole-3-carboxamide] | > 20 µM
NC(=O)Nc1cn(-c2cccc(-c3ccccc3C(F)(F)F)c2)nc1C(N)=O [Example 366, 4-[(aminocarbonyl)amino]-1-[2′-(trifluoromeethyl)-1,1′-biphenyl-3-yl]-1H-pyrazole-3-carboxamide] | > 20 µM
CC(C)c1ccc(-c2ccc(-n3cc(C(N)=O)c(NC(N)=O)n3)cc2)cc1 [Example 117] | > 20 µM
NC(=O)Nc1cn(-c2cccc(-c3ccccc3CO)c2)nc1C(N)=O [Example 87] | 1.52 µM
NC(=O)Nc1nn(-c2ccc(-c3ccc4ccccc4c3)cc2)cc1C(N)=O [Example 123] | > 20 µM
CC(=O)c1cccc(-c2cccc(-n3cc(NC(N)=O)c(C(N)=O)n3)c2)c1 [Example 351, 1-(3′-acetyl-1,1′-biphenyl-3-yl)-4-[(aminocarbonyl)amino]-1H-pyrazole-3-carboxamide] | > 20 µM
NC(=O)Nc1cn(-c2ccc(-c3ccc(C(=O)NCc4ccccc4)cc3)cc2)nc1C(N)=O [Example 35, 4-[(aminocarbonyl)amino]-1-{4′-[(benzylamino)carbonyl]-1,1′-biphenyl-4-yl}-1H-pyrazole-3-carboxamide] | 1.33 µM
CCOc1ccc(-c2cccc(-n3cc(NC(N)=O)c(C(N)=O)n3)c2)cc1 [Example 355, 4-[(aminocarbonyl)amino]-1-(4′-ethoxy-1,1′-biphenyl-3-yl)-1H-pyrazole-3-carboxamide] | 6.15 µM

These reach a lower IC50. Values come first.

IC50 | Compound
0.59 µM | Cc1cc(-c2cccc(-n3cc(NC(N)=O)c(C(N)=O)n3)c2)ccn1 [Example 63, 4-[(aminocarbonyl)amino]-1-[3-(2-methylpyridin-4-yl)phenyl]-1H-pyrazole-3-carboxamide]
0.9 µM | CC(=O)Nc1cccc(-c2cccc(-n3cc(NC(N)=O)c(C(N)=O)n3)c2)c1 [Example 76, 1-[3′-(acetylamino)-1,1′-biphenyl-3-yl]-4-[(aminocarbonyl)amino]-1H-pyrazole-3-carboxamide]
0.662 µM | NC(=O)Nc1cn(-c2ccc(I)cc2Cl)nc1C(N)=O [Example 251, 4-[(aminocarbonyl)amino]-1-(2-chloro-4-iodophenyl)-1H-pyrazole-3-carboxamide]
0.29 µM | NC(=O)Nc1cn(-c2cccc(-c3cn[nH]c3)c2)nc1C(N)=O [Example 57, 4-[(aminocarbonyl)amino]-1-[3-(1H-pyrazol-4-yl)phenyl]-1H-pyrazole-3-carboxamide]
0.431 µM | NC(=O)Nc1cn(-c2ccc([S+]([O-])C3CCCC3)cc2)nc1C(N)=O (stereo not shown) [Example 283, 1-(3-carbamoyl-1-(4-(cyclopentylsulfinyl)phenyl)-1H-pyrazol-4-yl)urea]
0.532 µM | NC(=O)Nc1cn(-c2ccc([S+]([O-])c3cccc(F)c3)cc2)nc1C(N)=O (stereo not shown) [Example 201, 1-(1-(4-(3-fluorophenylsulfinyl)phenyl)-3-carbamoyl-1H-pyrazol-4-yl)urea]
0.677 µM | N#Cc1cccc(-c2ccc(-n3cc(NC(N)=O)c(C(N)=O)n3)cc2)c1 [Example 104, 4-[(aminocarbonyl)amino]-1-(3′-cyano-1,1′-biphenyl-4-yl)-1H-pyrazole-3-carboxamide]
0.252 µM | NC(=O)Nc1cn(-c2ccc(S(=O)(=O)c3ccccc3O)cc2)nc1C(N)=O [Example 288, 1-(1-(4-(2-hydroxyphenylsulfonyl)phenyl)-3-carbamoyl-1H-pyrazol-4-yl)urea]
0.83 µM | NC(=O)Nc1cn(-c2ccc(-c3ccc(CO)cc3)cc2)nc1C(N)=O [Example 38, 4-[(aminocarbonyl)amino]-1-[4′-(hydroxymethyl)-1,1′-biphenyl-4-yl]-1H-pyrazole-3-carboxamide]
0.9 µM | CCN(CC)C(=O)CCc1cccc(-c2ccc(-n3cc(NC(N)=O)c(C(N)=O)n3)cc2)c1 [Example 382, 4-[(aminocarbonyl)amino]-1-{3′-[3-(diethylamino)-3-oxopropyl]-1,1′-biphenyl-4-yl}-1H-pyrazole-3-carboxamide]
0.38 µM | NC(=O)Nc1cn(-c2cccc(-c3ccnc(Cl)c3)c2)nc1C(N)=O [Example 13, 4-[(aminocarbonyl)amino]-1-[3-(2-chloropyridin-4-yl)phenyl]-1H-pyrazole-3-carboxamide]
